Results reported in US7981903B2, “2-[2-{phenylamino}-1H-pyrrolo[2,3-D]pyrimidin-4-yl)amino] benzamide derivatives as IGF-1R inhibitors for the treatment of cancer” (GlaxoSmithKline LLC, priority 2007, dated 2011).

Tests used:
ALK = ALK (Homo sapiens, UniProt Q9UM73); assay: ALK enzyme assay (HTRF); format: biochemical; settings: 0.25 nM ALK, 15.0 μM ATP, values given as pIC50 category
How it was run: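 Isolated ALK phosphorylates a biotinylated tyrosine peptide, 120 min at 20° C; anti-phosphotyrosine Eu-cryptate/streptavidin-XL665 HTRF read after 60 min with EDTA-containing detection mix.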

Colo205 = assay: Inhibition of cell proliferation (CellTiter-Glo or InCell analyzer), Colo205; format: cell-based; settings: Homo sapiens, COLO 205, 72 h / 3 days, values given as IC50 category
How it was run: In one

[1] = biological target: T1, NIH-3T3 cells overexpressing human IR (Homo sapiens, UniProt P06213); assay: IR cellular autophosphorylation (DELFIA); format: cell-based; settings: 2 h compound, insulin 3 ug/ml for 15 minutes, IC50 category
T1 construct: expressed in transfected cells; host or cells: NIH-3T3 (mouse fibroblasts)
How it was run: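 Receptor autophosphorylation measured by DELFIA, capturing IGF-1R or IRβ and detecting with europium anti-pTyr, reported as percent of IGF-1- or insulin-stimulated signal. Compounds (30 uM to 1.5 nM) added 2 h before ligand, then 15 min stimulation (IGF-1 30 ng/ml or insulin 3 ug/ml).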

NCI-H929 = assay: Inhibition of cell proliferation (CellTiter-Glo or InCell analyzer), NCI-H929; format: cell-based; settings: Homo sapiens, 72 h / 3 days, values given as IC50 category
How it was run: In one

Chain of ALK (Q9UM73 19-1620): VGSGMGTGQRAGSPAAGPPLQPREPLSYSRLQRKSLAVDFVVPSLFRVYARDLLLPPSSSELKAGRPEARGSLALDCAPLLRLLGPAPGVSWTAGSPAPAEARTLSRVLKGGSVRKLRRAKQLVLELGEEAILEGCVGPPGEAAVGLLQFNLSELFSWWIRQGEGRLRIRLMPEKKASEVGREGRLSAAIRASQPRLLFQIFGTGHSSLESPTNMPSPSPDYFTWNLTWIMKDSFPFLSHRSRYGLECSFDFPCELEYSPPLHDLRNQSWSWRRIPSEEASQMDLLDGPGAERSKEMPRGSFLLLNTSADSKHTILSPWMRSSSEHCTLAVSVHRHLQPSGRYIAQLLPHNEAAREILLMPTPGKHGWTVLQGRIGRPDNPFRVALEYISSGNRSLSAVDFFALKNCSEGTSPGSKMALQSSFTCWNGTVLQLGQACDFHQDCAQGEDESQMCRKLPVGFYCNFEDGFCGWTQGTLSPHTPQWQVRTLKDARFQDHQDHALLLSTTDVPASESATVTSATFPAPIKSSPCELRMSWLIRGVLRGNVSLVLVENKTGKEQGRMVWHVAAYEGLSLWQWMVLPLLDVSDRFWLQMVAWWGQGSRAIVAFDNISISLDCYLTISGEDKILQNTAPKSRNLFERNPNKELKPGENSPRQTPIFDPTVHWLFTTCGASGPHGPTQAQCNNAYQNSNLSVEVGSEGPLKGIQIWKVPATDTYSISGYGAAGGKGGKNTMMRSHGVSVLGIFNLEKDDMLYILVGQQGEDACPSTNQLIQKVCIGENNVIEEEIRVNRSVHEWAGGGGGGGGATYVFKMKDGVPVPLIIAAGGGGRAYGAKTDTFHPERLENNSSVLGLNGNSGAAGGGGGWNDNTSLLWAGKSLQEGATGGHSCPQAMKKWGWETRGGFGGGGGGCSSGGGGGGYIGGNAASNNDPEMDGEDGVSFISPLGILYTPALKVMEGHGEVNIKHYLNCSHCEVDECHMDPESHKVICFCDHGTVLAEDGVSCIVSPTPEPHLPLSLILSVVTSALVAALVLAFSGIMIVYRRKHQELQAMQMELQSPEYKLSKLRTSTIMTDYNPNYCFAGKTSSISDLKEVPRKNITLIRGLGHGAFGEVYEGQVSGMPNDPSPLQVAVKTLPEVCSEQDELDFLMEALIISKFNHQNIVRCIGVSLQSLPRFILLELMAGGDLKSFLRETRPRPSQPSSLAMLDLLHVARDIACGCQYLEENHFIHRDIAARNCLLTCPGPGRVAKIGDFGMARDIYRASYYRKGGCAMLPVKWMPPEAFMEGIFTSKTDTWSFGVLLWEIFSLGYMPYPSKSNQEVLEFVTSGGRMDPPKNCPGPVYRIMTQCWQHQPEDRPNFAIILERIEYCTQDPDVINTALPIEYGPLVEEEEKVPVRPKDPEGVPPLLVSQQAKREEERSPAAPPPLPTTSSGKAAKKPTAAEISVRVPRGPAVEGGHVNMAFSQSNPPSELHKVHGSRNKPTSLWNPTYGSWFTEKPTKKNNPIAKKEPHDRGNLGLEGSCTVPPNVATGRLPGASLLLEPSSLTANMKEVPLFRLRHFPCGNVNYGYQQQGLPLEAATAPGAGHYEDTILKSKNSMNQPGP
T1 sequence (P06213 28-1382): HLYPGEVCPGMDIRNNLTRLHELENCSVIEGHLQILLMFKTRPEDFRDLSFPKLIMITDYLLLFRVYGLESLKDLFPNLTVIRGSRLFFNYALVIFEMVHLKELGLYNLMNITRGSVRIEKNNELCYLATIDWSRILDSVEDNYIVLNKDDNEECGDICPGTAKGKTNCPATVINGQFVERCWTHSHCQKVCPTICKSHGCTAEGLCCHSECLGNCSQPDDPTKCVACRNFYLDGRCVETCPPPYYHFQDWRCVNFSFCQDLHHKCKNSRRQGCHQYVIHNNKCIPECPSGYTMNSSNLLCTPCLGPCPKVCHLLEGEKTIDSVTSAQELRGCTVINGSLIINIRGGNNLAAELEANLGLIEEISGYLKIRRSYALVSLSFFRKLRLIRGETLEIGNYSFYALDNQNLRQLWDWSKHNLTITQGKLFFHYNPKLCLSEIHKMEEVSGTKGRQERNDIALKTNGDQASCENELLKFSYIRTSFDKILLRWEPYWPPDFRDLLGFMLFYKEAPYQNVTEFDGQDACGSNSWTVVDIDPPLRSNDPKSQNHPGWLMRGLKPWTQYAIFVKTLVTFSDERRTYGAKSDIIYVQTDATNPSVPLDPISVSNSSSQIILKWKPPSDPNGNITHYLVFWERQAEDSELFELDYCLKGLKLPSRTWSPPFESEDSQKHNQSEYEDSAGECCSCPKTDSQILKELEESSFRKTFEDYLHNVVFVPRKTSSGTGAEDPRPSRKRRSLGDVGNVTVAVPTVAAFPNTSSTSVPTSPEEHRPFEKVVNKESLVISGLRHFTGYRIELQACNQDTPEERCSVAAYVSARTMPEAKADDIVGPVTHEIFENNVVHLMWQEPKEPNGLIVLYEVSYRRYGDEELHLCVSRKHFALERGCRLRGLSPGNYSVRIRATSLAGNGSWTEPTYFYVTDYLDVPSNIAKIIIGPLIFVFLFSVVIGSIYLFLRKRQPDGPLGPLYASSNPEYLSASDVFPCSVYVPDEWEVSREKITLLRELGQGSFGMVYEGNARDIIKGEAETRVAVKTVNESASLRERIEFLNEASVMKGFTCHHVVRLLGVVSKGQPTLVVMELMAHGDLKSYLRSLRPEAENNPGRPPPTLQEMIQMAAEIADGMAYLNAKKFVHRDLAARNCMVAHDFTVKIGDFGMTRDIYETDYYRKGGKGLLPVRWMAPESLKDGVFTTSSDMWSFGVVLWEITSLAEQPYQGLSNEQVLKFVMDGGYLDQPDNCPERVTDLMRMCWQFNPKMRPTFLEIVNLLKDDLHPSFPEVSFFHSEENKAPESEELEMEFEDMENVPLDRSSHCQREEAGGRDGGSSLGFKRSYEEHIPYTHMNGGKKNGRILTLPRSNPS

IC50 (ALK) [nM]	IC50 (Colo205) [nM]	IC50 [1] [nM]	IC50 (NCI-H929) [nM]	Compound
1.26 to 3.98	< 250			COc1ccc(N2CCN(C)CC2)cc1Nc1nc(Nc2ccccc2C(N)=O)c2cc[nH]c2n1 [Example 9, 2-[(2-{[2-(methyloxy)-5-(4-methyl-1-piperazinyl)phenyl]amino}-1H-pyrrolo[2,3-d]pyrimidin-4-yl)amino]benzamide]
1.26 to 3.98	< 250	100 to 500		COc1ccc(N2CCN(C(C)C)CC2)cc1Nc1nc(Nc2ccccc2C(N)=O)c2cc[nH]c2n1 [Example 10, 2-[(2-{[5-[4-(1-methylethyl)-1-piperazinyl]-2-(methyloxy)phenyl]amino}-1H-pyrrolo[2,3-d]pyrimidin-4-yl)amino]benzamide]
1.26 to 3.98	< 250			CN(C)CC(=O)Nc1ccc(Cl)c(Nc2nc(Nc3ccccc3C(N)=O)c3cc[nH]c3n2)c1 [Example 18, 2-{[2-({2-chloro-5-[(N,N-dimethylglycyl)amino]phenyl}amino)-1H-pyrrolo[2,3-d]pyrimidin-4-yl]amino}benzamide]
1.26 to 3.98	250 to 1000	100 to 500		COc1cc(N2CCC(N3CC[C@H](F)C3)CC2)ccc1Nc1nc(Nc2cccc(F)c2C(N)=O)c2cc[nH]c2n1 [Example 43, 2-fluoro-6-[(2-{[4-{4-[(3S)-3-fluoro-1-pyrrolidinyl]-1-piperidinyl}-2-(methyloxy)phenyl]amino}-1H-pyrrolo[2,3-d]pyrimidin-4-yl)amino]benzamide]
1.26 to 3.98	250 to 1000	> 500	< 250	COc1cc(N2CCC(N3CC[C@@H](F)C3)CC2)ccc1Nc1nc(Nc2cccc(F)c2C(N)=O)c2cc[nH]c2n1 [Example 44, 2-fluoro-6-[(2-{[4-{4-[(3R)-3-fluoro-1-pyrrolidinyl]-1-piperidinyl}-2-(methyloxy)phenyl]amino}-1H-pyrrolo[2,3-d]pyrimidin-4-yl)amino]benzamide]
0.251 to 1	< 250	100 to 500	< 250	COc1cc(N2CCN(C(C)C)CC2)ccc1Nc1nc(Nc2cccc(F)c2C(N)=O)c2cc[nH]c2n1 [Example 46, 2-fluoro-6-[(2-{[4-[4-(1-methylethyl)-1-piperazinyl]-2-(methyloxy)phenyl]amino}-1H-pyrrolo[2,3-d]pyrimidin-4-yl)amino]benzamide]
1.26 to 3.98	< 250	100 to 500		COc1cc(N2CCOC[C@@H]2C)ccc1Nc1nc(Nc2cccc(F)c2C(N)=O)c2cc[nH]c2n1 [Example 49, 2-fluoro-6-[(2-{[4-[(3S)-3-methyl-4-morpholinyl]-2-(methyloxy)phenyl]amino}-1H-pyrrolo[2,3-d]pyrimidin-4-yl)amino]benzamide]
0.251 to 1	< 250			COc1cc(N2CCC(N3CCOCC3)CC2)ccc1Nc1nc(Nc2ccc(F)cc2C(N)=O)c2cc[nH]c2n1 [Example 59, 5-fluoro-2-{[2-({2-(methyloxy)-4-[4-(4-morpholinyl)-1-piperidinyl]phenyl}amino)-1H-pyrrolo[2,3-d]pyrimidin-4-yl]amino}benzamide]
1.26 to 3.98	< 250	< 100		COc1cc(N2CCOC[C@@H]2C)ccc1Nc1nc(Nc2ccc(F)cc2C(N)=O)c2cc[nH]c2n1 [Example 61, 5-fluoro-2-[(2-{[4-[(3S)-3-methyl-4-morpholinyl]-2-(methyloxy)phenyl]amino}-1H-pyrrolo[2,3-d]pyrimidin-4-yl)amino]benzamide]
0.251 to 1	< 250			COc1cc(N2CCN(C(C)C)CC2)ccc1Nc1nc(Nc2ccc(Br)cc2C(N)=O)c2cc[nH]c2n1 [Example 68, 5-bromo-2-[(2-{[4-[4-(1-methylethyl)-1-piperazinyl]-2-(methyloxy)phenyl]amino}-1H-pyrrolo[2,3-d]pyrimidin-4-yl)amino]benzamide]
0.251 to 1	250 to 1000	100 to 500		COc1cc(C2=CCN(C(C)C)CC2)ccc1Nc1nc(Nc2cc(F)ccc2C(N)=O)c2cc[nH]c2n1 [Example 72, 4-fluoro-2-[(2-{[4-[1-(1-methylethyl)-1,2,3,6-tetrahydro-4-pyridinyl]-2-(methyloxy)phenyl]amino}-1H-pyrrolo[2,3-d]pyrimidin-4-yl)amino]benzamide]
1.26 to 3.98	< 250	100 to 500		COc1cc(N2CCC[C@H](O)C2)ccc1Nc1nc(Nc2cc(F)ccc2C(N)=O)c2cc[nH]c2n1 [Example 74, 4-fluoro-2-[(2-{[4-[(3S)-3-hydroxy-1-piperidinyl]-2-(methyloxy)phenyl]amino}-1H-pyrrolo[2,3-d]pyrimidin-4-yl)amino]benzamide]
1.26 to 3.98	< 250	< 100		COc1cc(N2CCC(N3CC[C@H](F)C3)CC2)ccc1Nc1nc(Nc2cc(F)ccc2C(N)=O)c2cc[nH]c2n1 [Example 75, 4-fluoro-2-[(2-{[4-{4-[(3S)-3-fluoro-1-pyrrolidinyl]-1-piperidinyl}-2-(methyloxy)phenyl]amino}-1H-pyrrolo[2,3-d]pyrimidin-4-yl)amino]benzamide]
1.26 to 3.98	250 to 1000	100 to 500		COc1cc(N2CCC(N3CC[C@@H](F)C3)CC2)ccc1Nc1nc(Nc2cc(F)ccc2C(N)=O)c2cc[nH]c2n1 [Example 76, 4-fluoro-2-[(2-{[4-{4-[(3R)-3-fluoro-1-pyrrolidinyl]-1-piperidinyl}-2-(methyloxy)phenyl]amino}-1H-pyrrolo[2,3-d]pyrimidin-4-yl)amino]benzamide]
1.26 to 3.98	250 to 1000	< 100		COc1cc(N2CCC(N3CCCC(F)(F)C3)CC2)ccc1Nc1nc(Nc2cc(F)ccc2C(N)=O)c2cc[nH]c2n1 [Example 77, 2-[(2-{[4-(3,3-difluoro-1,4′-bipiperidin-1′-yl)-2-(methyloxy)phenyl]amino}-1H-pyrrolo[2,3-d]pyrimidin-4-yl)amino]-4-fluorobenzamide]
1.26 to 3.98	< 250	100 to 500		COc1cc(N2CCN(C(C)C)CC2)c(OC)cc1Nc1nc(Nc2cc(F)ccc2C(N)=O)c2cc[nH]c2n1 [Example 82, 4-fluoro-2-[(2-{[4-[4-(1-methylethyl)-1-piperazinyl]-2,5-bis(methyloxy)phenyl]amino}-1H-pyrrolo[2,3-d]pyrimidin-4-yl)amino]benzamide]
0.251 to 1	250 to 1000	> 500		CCCN1CCC=C(c2ccc(Nc3nc(Nc4cc(F)ccc4C(=O)N[C@@H](C)CC)c4cc[nH]c4n3)c(OC)c2)C1 [Example 87, 4-fluoro-2-[(2-{[2-(methyloxy)-4-(1-propyl-1,2,5,6-tetrahydro-3-pyridinyl)phenyl]amino}-1H-pyrrolo[2,3-d]pyrimidin-4-yl)amino]-N-[(1S)-1-methylpropyl]benzamide]
1.26 to 3.98	250 to 1000	> 500		COc1cc(N2CCN(C(C)C)CC2)ccc1Nc1nc(Nc2cc(F)cc(OC)c2C(N)=O)c2cc[nH]c2n1 [Example 88]
0.251 to 1	250 to 1000			COc1cc(N2CCC(O)CC2)ccc1Nc1nc(Nc2cc(F)c(F)cc2C(N)=O)c2cc[nH]c2n1 [Example 99]
0.251 to 1	< 250			COc1cc(N2CCC(N3CCCCC3)CC2)ccc1Nc1nc(Nc2cc(F)c(F)cc2C(N)=O)c2cc[nH]c2n1 [Example 100, 2-[(2-{[4-(1,4′-bipiperidin-1′-yl)-2-(methyloxy)phenyl]amino}-1H-pyrrolo[2,3-d]pyrimidin-4-yl)amino]-4,5-difluorobenzamide]
0.251 to 1	250 to 1000	> 500		COc1cc(N2CCC(N3CCOCC3)CC2)ccc1Nc1nc(Nc2cc(F)c(F)cc2C(N)=O)c2cc[nH]c2n1 [Example 101, 4,5-difluoro-2-{[2-({2-(methyloxy)-4-[4-(4-morpholinyl)-1-piperidinyl]phenyl}amino)-1H-pyrrolo[2,3-d]pyrimidin-4-yl]amino}benzamide]
1.26 to 3.98	< 250	100 to 500		COc1cc(N2CCN(C(C)=O)CC2)ccc1Nc1nc(Nc2cc(F)c(F)cc2C(N)=O)c2cc[nH]c2n1 [Example 103, 2-[(2-{[4-(4-acetyl-1-piperazinyl)-2-(methyloxy)phenyl]amino}-1H-pyrrolo[2,3-d]pyrimidin-4-yl)amino]-4,5-difluorobenzamide]
1.26 to 3.98	> 1000			COc1cc(N2CCOCC2)ccc1Nc1nc(Nc2cc(F)c(F)cc2C(N)=O)c2cc[nH]c2n1 [Example 104, 4,5-difluoro-2-[(2-{[2-(methyloxy)-4-(4-morpholinyl)phenyl]amino}-1H-pyrrolo[2,3-d]pyrimidin-4-yl)amino]benzamide]
1.26 to 3.98	< 250	< 100		COc1cc(N2CCOC[C@@H]2C)ccc1Nc1nc(Nc2cc(F)c(F)cc2C(N)=O)c2cc[nH]c2n1 [Example 105, 4,5-difluoro-2-[(2-{[4-[(3S)-3-methyl-4-morpholinyl]-2-(methyloxy)phenyl]amino}-1H-pyrrolo[2,3-d]pyrimidin-4-yl)amino]benzamide]
0.251 to 1	< 250		< 250	COc1cc(N2CCC(C3CCN(CCS(C)(=O)=O)CC3)CC2)ccc1Nc1nc(Nc2cccc(F)c2C(N)=O)c2cc[nH]c2n1 [Example 112, 2-fluoro-6-({2-[(2-(methyloxy)-4-{1′-[2-(methylsulfonyl)ethyl]-4,4′-bipiperidin-1-yl}phenyl)amino]-1H-pyrrolo[2,3-d]pyrimidin-4-yl}amino)benzamide]
